Laboratory results as given in US10105437B2, “Epitopes related to coeliac disease” (BTG International Limited, priority 2004, dated 2018).

System: PBMC from HLA-DQ2+ coeliac subjects
Assay: Interferon gamma ELISPOT, second round wheat gliadin and glutenin 16mer library
Assay type: cell-based, human
Details: 16mers pre-treated with transglutaminase, 18 or 28 subjects; for subjects with >70% of maximal peptide-specific response: normalized to individual's maximal response
Description: 12mer peptides were then identified in which each potential deamidation site could be in position 4, 6 or 7 in the 9mer located within HLA-DQ2 binding groove (HLA-DQ2 anchors at these positions show a preference for glutamate). Candidate 12mer core epitope sequences were then flanked with glycine followed by the N-terminal residue present in the parent gliadin polypeptide and at the C-terminal by the C-terminal residue present in the parent gliadin polypeptide followed by glycine (i.e. GXXXXXXXQXXXXXXG (SEQ ID NO: 1936)). […]
IFNγ ELISpot assays (Mabtech, Sweden) were performed in 96-well plates (MAIP S-45, Millipore) in which each well contained 25 mcl of peptide solution and 100 mcl of PBMC (2-8×10^5/well) in RPMI containing 10% heat inactivated human AB serum. After development and drying, IFNγ ELISpot plates were assessed using the MAIP automated ELISpot plate counter. Data was then analysed according to a novel algorithm (Expectation Maximization: EM) to define and quantify interferon-gamma responses to 9mer sequences contained within the peptide library (see FIG. 3 and below). 9mer peptides were then rationalised according to an algorithm that assumes redundancy in T-cell recognition, the “IterativeCluster” algorithm (see FIG. 4 and below), by allowing groups of amino acids with similar chemical properties at any one position in the 9mer, or for glutamate to replace glutamine at any position (assuming deamidation may have occurred).
All 2nd round 16mer peptides were assessed in at least 18 subjects. […] All 16mers identified for the second round Oxford library also fulfilled the selection criteria for the Melbourne second round library.
The second round peptide library data was analysed according to the “dominance” of peptide responses in the interferon gamma ELISPOT in individual subjects i.e. the percent response of an individual's PBMC to a specific peptide normalized against that individual's maximal peptide-induced response. Sequences of peptides that stimulated at least 40% of the maximal peptide-specific response in at least one subject are shown in Table 1 below. The dataset supports the consistency and “dominance” of peptides conforming to the sequences identified using the first round 20mer peptide library using the Expectation Maximization (EM) algorithm described above.

Row | Substance | subjects with 10-40% of maximal peptide-specific response | subjects with 40-70% of maximal peptide-specific response | subjects with <10% of maximal peptide-specific response | subjects with >70% of maximal peptide-specific response
1 | DAIRAIIYSIVLQEQQ [wheat 16mer, second round library] | Nil | Nil | 17/18 | Nil
2 | G-FFPQPQQQFPQPQQ-G: wheat 16mer, second round library (GFPQQPQQQFPQPQQG; Description of Artificial Sequence: Synthetic gluten peptide) | 10/28 | 1/28 | 17/28 | Nil
3 | G-FPQLQQPQQPFPQQ-G: wheat 16mer, second round library (GFPQTQQPQQPFPQQG; Description of Artificial Sequence: Synthetic gluten peptide) | 1/28 | Nil | 26/28 | 1/28
4 | G-FPQPQQPQQPFPQQ-G: wheat 16mer, second round library (GFPQPQQPQQSFPQQG; Description of Artificial Sequence: Synthetic gluten peptide) | 3/28 | 1/28 | 25/28 | Nil
5 | G-FPQQPQQQFPQPQQ-G: wheat 16mer, second round library (GQQPFPQPQQQFPQPG; Description of Artificial Sequence: Synthetic gluten peptide) | Nil | 1/28 | 27/28 | Nil
6 | G-IQVDPSGQVQWPQQ-G: wheat 16mer, second round library (GMQADPSGQVQWPQQG; Description of Artificial Sequence: Synthetic gluten peptide) | Nil | Nil | 17/18 | 1/18
7 | G-LQPFPQPQLPFPQP-G: wheat 16mer, second round library (GLQPFPQPQLPFPQPG; Description of Artificial Sequence: Synthetic gluten peptide) | 5/28 | 8/28 | 10/28 | 4/28
8 | G-LQPFPQPQLPYLQP-G: wheat 16mer, second round library (GLQPFPQPQLPYLQPG; Description of Artificial Sequence: Synthetic gluten peptide) | 12/28 | 1/28 | 14/28 | 1/28
9 | G-LQPFPQPQLPYPQP-G: wheat 16mer, second round library (GLQPFPQPQLPYPQPG; Description of Artificial Sequence: Synthetic gluten peptide) | Nil | 8/28 | 6/28 | 14/28
10 | G-LQPFPQPQLPYSQP-G: wheat 16mer, second round library (GLQPFPQPQLPYSQPG; Description of Artificial Sequence: Synthetic gluten peptide) | 12/28 | 3/28 | 11/28 | 2/28
11 | G-LQPFPQPQLSYSQP-G: wheat 16mer, second round library (GLQPFPQPQLSYSQPG; Description of Artificial Sequence: Synthetic gluten peptide) | 2/28 | 1/28 | 25/28 | Nil
12 | G-MQVDPSGQVQWPQQ-G: wheat 16mer, second round library (GIQVDPSGQVQWPQQG; Description of Artificial Sequence: Synthetic gluten peptide) | Nil | Nil | 17/18 | 1/18
13 | G-QLPYPQPQLPYPQP-G: wheat 16mer, second round library (GQLPYPQPQLPYPQPG; Description of Artificial Sequence: Synthetic gluten peptide) | 3/28 | 4/28 | 3/28 | 18/28
14 | G-QPFPLQPQQPFPQQ-G: wheat 16mer, second round library (GQPFPWQPQQPFPQQG; Description of Artificial Sequence: Synthetic gluten peptide) | 7/28 | 2/28 | 19/28 | Nil
15 | G-QPFPWQPQQPFPQQ-G: wheat 16mer, second round library (GQPTPIQPQQPFPQQG; Description of Artificial Sequence: Synthetic gluten peptide) | 8/28 | 2/28 | 18/28 | Nil
16 | G-QQPFPQPQQPFPWQ-G: wheat 16mer, second round library | 5/28 | 8/28 | 6/28 | 9/28
17 | G-QQPFPQPQQPFSQQ-G: wheat 16mer, second round library | 8/28 | 7/28 | 9/28 | 4/28
18 | G-QQPFPQPQQPIPVQ-G: wheat 16mer, second round library | 7/28 | 5/28 | 8/28 | 8/28
19 | G-QQPQFSQQQQIPVI-G: wheat 16mer, second round library (PFPQPQQPFPW; Description of Artificial Sequence: Synthetic gluten peptide) | Nil | 1/28 | 17/18 | Nil
20 | G-QQPQQQPQQPFPQQ-G: wheat 16mer, second round library | 5/28 | 1/28 | 22/28 | Nil
21 | G-QQQFSQPQQQFPQP-G: wheat 16mer, second round library | 7/28 | 5/28 | 16/28 | Nil
22 | G-QVSFQQPQQQYPSP-G: wheat 16mer, second round library | 4/28 | 2/28 | 22/28 | Nil
23 | GQGQSGYYPTSPQQSG (QQGYYPTSPQQSGQGQ; Description of Artificial Sequence: Synthetic gluten peptide) [wheat 16mer, second round library] | 2/18 | Nil | 15/18 | 1/18
24 | GQVVNNHGQTVFNDIG [wheat 16mer, second round library] | 4/18 | 1/18 | – | Nil
25 | IIMQQEQQEQRQGVQI [wheat 16mer, second round library] | 8/28 | Nil | 19/28 | 1/28
